# Where two headings read alike, the source gives them in different places.
# Key:
# [1] = acute toxicity (LD50) in mice; format: in vivo, mouse; conditions: in vivo, mouse
# From the text: (§1) In the Table 3 which follows are listed results of tests pertaining to the effectiveness of various compounds that are disclosed herein. The results are included in the several columns under letters whose significance is as follows:
# (§2) A - lethal dose (LD50) to mice in milligrams per kilogram of body weight of the mouse when administered per os.
# (§3) B - lethal dose (LD50) to mice in milligrams per kilogram of body weight of the mouse when administered intraperitoneally.
# (§4) A. lethal dose (LD50) to mice in milligrams per kilogram body weight of the mouse when administered per os.
# (§5) B. lethal dose (LD50) to mice in milligrams per kilogram body weight of the mouse administered intraperitoneally.
# (§6) The values specified in Tables 4 and 5 hereinafter refer to milligrams per kilogram of body weight of the mouse.
# (§7) Tests performed in accordance with the procedure described by Campbell and Richter in Acta Pharmacol. et Toxicol., vol. […] This is indicated by the results that are reported in Table 5 in which the headings A and F have the same significance as hereinbefore while the values in the column heading L pertain to the dose in milligrams per kilogram of body weight that was required to produce a lowering of the rectal temperature, which are values indicative of the depressant effect of a compound upon the central nervous system.
# white mice [2] = assay: climbing test (Campbell and Richter screening); format: in vivo; conditions: mouse; Table 4; read-out: J. climbing test (ED50)
# From the text: (§8) The sedative and hypnotic effectiveness of the compounds of the invention were also ascertained by screening tests with white mice described by Campbell and Richter in Acta Pharmacol. et Toxicol. 25 (1967) page 345. In Table 4 the results of various specific screening tests are listed. These tests were as follows:
# as §6
# white mice [3] = assay: balance bar test (Campbell and Richter screening); format: in vivo; conditions: mouse; Table 4; read-out: K. balance bar test (ED50)
# From the text: as §8
# K. balance bar test (ED50).
# as §6
# mouse [4] = assay: lowering of the rectal temperature in mice; format: in vivo; conditions: for dose required to produce a lowering of the rectal temperature, relative to the 4-hydroxy compound (in words): compared with Compound No. 2090; for minimal effective dose: mouse, Table 5, read-out: L dose required to produce a lowering of the rectal temperature
# From the text: as §6, §7
# mice [5] = assay: acute toxicity (LD50) in mice; format: in vivo, mouse; conditions: mouse; for B - lethal dose (LD50) to mice, intraperitoneally: intraperitoneal; for B - lethal dose (LD50) to mice, intraperitoneally / A - lethal dose (LD50) to mice, per os: Table 3
# From the text: as §1, §2, §3, §4, §5, §6, §7
# mouse [6] = assay: ataxia in mice; format: in vivo; conditions: for C - ataxia: dose required to produce ataxia in a mouse / minimal effective dose: Table 3; for minimal effective dose: Mus musculus, read-out: C - ataxia: dose required to produce ataxia in a mouse, mouse
# From the text: as §1
# C - ataxia: Dose in milligrams per kilogram of body weight required to produce ataxia in a mouse.
# mice [7] = assay: narcosis (lateral position) in mice; format: in vivo, mouse; conditions: for ED50: ip, 0.05 h, read-out: D - narcosis (lateral position): dose (ED50) which produces narcosis for 3 minutes in 50% of the mice; for narcosis (in words): comparison of epimers
# From the text: (§9) In the Table 3 which follows are listed results of tests pertaining to the effectiveness of various compounds that are disclosed herein.
# mouse [8] = assay: prolongation of narcosis produced by hexobarbital in mice; format: in vivo; conditions: for prolongation of narcosis produced by hexobarbital (in words): comparison of epimers; for E - dose which prolongs narcosis produced by hexobarbital in a mouse by a factor of 4: factor of 4, Table 3
# From the text: as §9
# white mice [9] = assay: ptosis test (Campbell and Richter screening); format: in vivo, mouse; conditions: for F ptosis test: mouse, Table 5
# From the text: as §8, §6, §7
# [10] = ip, intraperitoneal, Table 4, read-out: B. lethal dose (LD50) to mice, intraperitoneally
# [11] = po, per os, Table 4, read-out: A. lethal dose (LD50) to mice, per os
# [12] = po, per os, Table 5, read-out: A lethal dose (LD50) to mice, per os
# [13] = mouse, intraperitoneal, narcosis for 3 minutes, Table 3
# [14] = ip, intraperitoneal, Table 3, read-out: B - lethal dose (LD50) to mice, intraperitoneally
# [15] = po, per os, Table 3, read-out: A - lethal dose (LD50) to mice, per os
compound,measurement,setting,value
"C=CCNC(=O)OC1CC2C(C)C3OC(OC)C2C1(C)O3 (stereo not drawn) [Compound No. 2274, 4α-(N-Allylcarbamyloxy)-8-methoxy-3,10-dimethyl-2,9-dioxatricyclo[4.3.1.0^3,7]decane]",LD50,[1]; [10],279 mg/kg
same,LD50,[1]; [11],339 mg/kg
same,ED50,white mice [2],75 mg/kg
same,ED50,white mice [3],62.5 mg/kg
"C=C1C2OC(OC)C3C1CC(OC(=O)CC(C)C)C3(C)O2 (stereo not drawn) [Compound No. 2295, 4α-Isovaleryloxy-8-methoxy-3-methyl-10-methylene-2,9-dioxatricyclo[4.3.1.0^3,7]decane]",LD50,[1]; [12],> 1470 mg/kg
same,"dose required to produce a lowering of the rectal temperature, relative to the 4-hydroxy compound (in words)",mouse [4],smaller
same,minimal effective dose,mouse [4],100 mg/kg
"C=CCNC(=O)OC1CC2C(=C)C3OC(OC)C2C1(C)O3 (stereo not drawn) [Compound No. 2286, 4α-(N-Allylcarbamyloxy)-8-methoxy-3-methyl-10-methylene-2,9-dioxatricyclo[4.3.1.0^3,7]decane]",LD50,[1]; [10],444 mg/kg
same,LD50,[1]; [11],970 mg/kg
same,ED50,white mice [2],112 mg/kg
same,ED50,white mice [3],50 mg/kg
COC1OC2OC3(C)C(OC(=O)NC(C)(C)C)CC(C2C)C13 (centres unmarked) [compound 2328],LD50,[1]; [10],1130 mg/kg
same,LD50,[1]; [11],1470 mg/kg
same,ED50,white mice [2],175 mg/kg
same,ED50,white mice [3],56 mg/kg
CCCNC(=O)OC1CC2C(C)C3OC(OC)C2C1(C)O3 (centres unmarked) [compound 2364],LD50,[1]; [10],244 mg/kg
same,LD50,[1]; [11],327 mg/kg
same,ED50,white mice [2],44 mg/kg
same,ED50,white mice [3],38 mg/kg
COC1OC2OC3(C)C(OC(=O)NC(C)C)CC(C2C)C13 (centres unmarked) [Compound No. 2065],"B - lethal dose (LD50) to mice, intraperitoneally",mice [5],118 milligrams per kilogram of bod
same,"A - lethal dose (LD50) to mice, per os",mice [5],156 milligrams per kilogram of bod
same,ratio between effective and lethal doses (in words),"mouse [6]; 2065 versus 2057, ataxia",remains constant
same,increase in effectiveness in producing ataxia,mouse [6]; 2065 versus epimer 2057,ten-fold increase in effectiveness
same,dose required for producing ataxia,mouse [6]; mouse,12 milligrams per kilogram of body weight
same,C - ataxia: dose required to produce ataxia in a mouse,mouse [6]; mouse,12 milligrams per kilogram of bod
same,ED50,mice [7]; [13],46.4 mg/kg
same,narcosis (in words),mice [7]; mouse,produces a very strong narcosis
same,prolongation of narcosis produced by hexobarbital (in words),mouse [8],prolongation of narcosis produced by hexobarbital
same,E - dose which prolongs narcosis produced by hexobarbital in a mouse by a factor of 4,mouse [8],31.6 milligrams per kilogram of bod
C=CCNC(=O)OC1CC2C(=C)C3OC(OCC)C2C1(C)O3 (centres unmarked) [compound 2658],LD50,[1]; [10],331 mg/kg
same,LD50,[1]; [11],470 mg/kg
same,ED50,white mice [2],185 mg/kg
same,ED50,white mice [3],62 mg/kg
"C=C1C2OC(OC)C3C1CC(O)C3(C)O2 (stereo not drawn) [Compound No. 981, 4β-hydroxy-8-methoxy-3-methyl-10-methylene-2,9-dioxatricyclo[4.3.1.0^3,7]decane]",LD50,[1]; [14],600 mg/kg
same,LD50,[1]; [15],610 mg/kg
same,C - ataxia: dose required to produce ataxia in a mouse,mouse [6]; mouse,200 milligrams per kilogram of bod
same,E - dose which prolongs narcosis produced by hexobarbital in a mouse by a factor of 4,mouse [8],100 milligrams per kilogram of bod
C=C1C2OC(OC)C3C1CC(OC(=O)NC)C3(C)O2 (centres unmarked) [compound 2504],LD50,[1]; [10],492 mg/kg
same,LD50,[1]; [11],528 mg/kg
same,ED50,white mice [3],200 mg/kg
"COC1OC2OC3(C)C(OC(=O)CC(C)C)CC(C2C)C13 (stereo not drawn) [Compound No. 2215, 4α-Isovaleryloxy-8-methoxy-3,10-dimethyl-2,9-dioxatricyclo[4.3.1.0^3,7]decane]",LD50,[1]; [12],> 1470 mg/kg
same,dose producing ptosis relative to the 4-hydroxy compound (in words),white mice [9]; compared with Compound No. 1561,one-fourth or one-half of the dose required of the 4-hydroxy-compound
same,F ptosis test,white mice [9],50 milligrams per kilogram of bod
same,minimal effective dose,mouse [4],200 mg/kg
CCNC(=O)OC1CC2C(C)C3OC(OCC)C2C1(C)O3 (centres unmarked) [compound 2157],LD50,[1]; [14],527 mg/kg
same,LD50,[1]; [15],1470 mg/kg
same,ED50,mice [7]; [13],100 mg/kg
CCCCNC(=O)OC1CC2C(C)C3OC(OC)C2C1(C)O3 (centres unmarked) [compound 2327],LD50,[1]; [10],432 mg/kg
same,LD50,[1]; [11],690 mg/kg
same,ED50,white mice [2],56 mg/kg
same,ED50,white mice [3],18 mg/kg
"COC1OC2OC3(C)C(O)CC(C2C)C13 (stereo not drawn) [Compound No. 1561, 4α-Hydroxy-8-methoxy-3,10-dimethyl-2,9-dioxatricyclo[4.3.1.0^3,7]decane]",LD50,[1]; [12],> 1500 mg/kg
same,"B - lethal dose (LD50) to mice, intraperitoneally",mice [5],1600 milligrams per kilogram of bod
same,"A - lethal dose (LD50) to mice, per os",mice [5],> 1500 milligrams per kilogram of bod
same,C - ataxia: dose required to produce ataxia in a mouse,mouse [6]; mouse,200 milligrams per kilogram of bod
same,ED50,mice [7]; Mus musculus,800 mg/kg
same,E - dose which prolongs narcosis produced by hexobarbital in a mouse by a factor of 4,mouse [8],68 milligrams per kilogram of bod
same,F ptosis test,white mice [9],100 milligrams per kilogram of bod
same,minimal effective dose,mouse [4],100 mg/kg
"C=C1C2OC(OC)C3C1CC(OC(=O)CC)C3(C)O2 (stereo not drawn) [Compound No. 2118, 4α-Propionyloxy-8-methoxy-3-methyl-10-methylene-2,9-dioxatricyclo[4.3.1.0^3,7]decane]",LD50,[1]; [12],1140 mg/kg
same,F ptosis test,white mice [9],100 milligrams per kilogram of bod
same,"dose required to produce a lowering of the rectal temperature, relative to the 4-hydroxy compound (in words)",mouse [4],smaller
same,minimal effective dose,mouse [4],100 mg/kg
CNC(=O)OC1CC2C(C)C3OC(OC)C2C1(C)O3 (centres unmarked) [compound 2500],LD50,[1]; [10],954 mg/kg
same,LD50,[1]; [11],1140 mg/kg
same,ED50,white mice [2],250 mg/kg
same,ED50,white mice [3],621 mg/kg
C=C1C2OC(OC)C3C1CC(OC(=O)NCC)C3(C)O2 (centres unmarked) [Compound No. 2067],LD50,[1]; [14],390 mg/kg
same,LD50,[1]; [15],872 mg/kg
same,toxicity of the epimers (in words),mice [5]; 2067 versus 2076,substantially the same toxicity
same,minimal effective dose,mouse [6],50 mg/kg
same,doses effective in producing ataxia (in words),"mouse [6]; mouse, 2067 versus 2076",identical doses are effective in producing ataxia
same,narcosis (in words),mice [7]; mouse,does not produce narcosis
same,prolongation of narcosis produced by hexobarbital (in words),mouse [8],prolongs narcosis produced by hexobarbital
same,E - dose which prolongs narcosis produced by hexobarbital in a mouse by a factor of 4,mouse [8],215 milligrams per kilogram of bod
C=C1C2OC(OCC)C3C1CC(OC(=O)NCC)C3(C)O2 (centres unmarked) [compound 2179],LD50,[1]; [14],802 mg/kg
same,LD50,[1]; [15],944 mg/kg
same,minimal effective dose,mouse [6],< 100 mg/kg
same,ED50,mice [7]; [13],< 100 mg/kg
"C=C1C2OC(OC)C3C1CC(O)C3(C)O2 (stereo not drawn) [Compound No. 2090, 4α-Hydroxy-8-methoxy-3-methyl-10-methylene-2,9-dioxatricyclo[4.3.1.0^3,7] decane]","B - lethal dose (LD50) to mice, intraperitoneally",mice [5],300 milligrams per kilogram of bod
same,"A - lethal dose (LD50) to mice, per os",mice [5],774 milligrams per kilogram of bod
same,C - ataxia: dose required to produce ataxia in a mouse,mouse [6]; mouse,25 milligrams per kilogram of bod
same,ED50,mice [7]; Mus musculus,< 300 mg/kg
same,F ptosis test,white mice [9],100 milligrams per kilogram of bod
same,minimal effective dose,mouse [4],200 mg/kg
"COC1OC2OC3(C)C(OC(=O)NC4CCCCC4)CC(C2C)C13 (stereo not drawn) [Compound No. 2365, 4α-(N-Cyclohexylcarbamyloxy)-8-methoxy-3,10-dimethyl-2,9-dioxatricyclo[4.3.1.0^3,7]decane]",LD50,[1]; [10],832 mg/kg
same,LD50,[1]; [11],1470 mg/kg
same,ED50,white mice [2],150 mg/kg
same,ED50,white mice [3],137 mg/kg
"COC1OC2OC3(C)C(O)CC(C2C)C13 (stereo not drawn) [Compound No. 1246, 4β-hydroxy-3,10-dimethyl-8-methoxy-2,9-dioxatricyclo[4.3.1.0^3,7]decane]",LD50,[1]; [14],1200 mg/kg
same,LD50,[1]; [15],> 1500 mg/kg
same,C - ataxia: dose required to produce ataxia in a mouse,mouse [6]; mouse,800 milligrams per kilogram of bod
same,E - dose which prolongs narcosis produced by hexobarbital in a mouse by a factor of 4,mouse [8],68 milligrams per kilogram of bod
C=C1C2OC(OC)C3C1CC(OC(=O)NCCC)C3(C)O2 (centres unmarked) [compound 2388],LD50,[1]; [10],516 mg/kg
same,LD50,[1]; [11],619 mg/kg
same,ED50,white mice [2],75 mg/kg
same,ED50,white mice [3],33 mg/kg
"C=C1C2OC(OC)C3C1CC(OC(C)=O)C3(C)O2 (stereo not drawn) [Compound No. 2117, 4α-Acetoxy-8-methoxy-3-methyl-10-methylene-2,9-dioxatricyclo [4.3.1.0^3,7] decane]",LD50,[1]; [12],774 mg/kg
same,F ptosis test,white mice [9],100 milligrams per kilogram of bod
same,"dose required to produce a lowering of the rectal temperature, relative to the 4-hydroxy compound (in words)",mouse [4],smaller
same,minimal effective dose,mouse [4],50 mg/kg

# Source: US4016176A, “Esters of 4-hydroxy-2,9-dioxatricyclo[4.3.1.0^3,7 ] decanes and processes for their production” (Kali-Chemie Pharma GmbH, priority 1973, dated 1977)
